The values that follow come from paper PMC2688463 (Journal of medicinal chemistry, 2008).

Assay [1] relates to SK-OV-3 ovarian cancer cell line. Briefly: Cell growth assay. The format is cell-based, human.
The test system of assay [2] is MDA-MB-231 breast cancer cell line. Briefly: Cell growth assay. It counts as cell-based, human.
The subject of assay [3] is MDA-MB-231 cell line. The assay is described as follows: Apoptosis assay. It counts as cell-based, human. The conditions noted are these: 100 nM, 48 hours.
The target in assay [4] is recombinant human XIAP BIR3 protein (Homo sapiens, UniProt P98170). The assay is described as follows: Cell-free caspase-9 functional assay. It counts as biochemical. The following applies: at concentrations as high as 100 μM.
Chain of recombinant human XIAP BIR3 protein (P98170 241-356): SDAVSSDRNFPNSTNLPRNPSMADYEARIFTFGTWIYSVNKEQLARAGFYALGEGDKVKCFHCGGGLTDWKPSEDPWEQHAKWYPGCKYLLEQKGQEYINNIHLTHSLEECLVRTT

For `CC[C@H](N)C(=O)N[C@H]1CCCC[C@H]2CC[C@@H](C(=O)NC(c3ccccc3)c3ccccc3)N2C1=O` [Compound 17, (3S,6S,11S)-6-((S)-2-Amino-butyrylamino)-5-oxo-decahydro-pyrrolo[1,2-α]azocine-3-carboxylic acid benzhydryl-amide], the “cellular activity (cell growth inhibition)” value in assay [1] and in assay [2] was “weak cellular activity” in each case.
In the case of `CN[C@@H](C)C(=O)N[C@H]1CCCC[C@H]2CC[C@@H](C(=O)NC(c3ccccc3)c3ccccc3)N2C1=O` [Compound 20, (3S,6S,11S)-6-((S)-2-Methylamino-propionylamino)-5-oxo-decahydro-pyrrolo[1,2-α]azocine-3-carboxylic acid benzhydryl-amide], the induction of apoptosis entry in assay [3] is recorded as “robust apoptosis”.
The same measure, in the same setting: the entry for `CC[C@H](NC)C(=O)N[C@H]1CCCC[C@H]2CC[C@@H](C(=O)NC(c3ccccc3)c3ccccc3)N2C1=O` [Compound 21, (3S,6S,11S)-6-((S)-2-Methylamino-butyrylamino)-5-oxo-decahydro-pyrrolo[1,2-α]azocine-3-carboxylic acid benzhydryl-amide] is “robust apoptosis”.
With `C[C@H](O)C(=O)N[C@H]1CCCC[C@H]2CC[C@@H](C(=O)NC(c3ccccc3)c3ccccc3)N2C1=O` [Compound 24], the “times less potent than compound 25 in cell growth inhibition” value in assay [1] and in assay [2] was > 30 times each time. In assay [4], the “restoration of caspase-9 activity” value was “no significant effect”.
